Test results: PMC4110927 (Virology, 2013)
Several values for one entry are separate records, joined by “and”; a condition that tells them apart may be missing. Identical values can stand only once. Where a SMILES comes first, the peptide text is derived from it. Where no end group is shown, it is not given here.

test system: autologous PBMC of subject 8; test: Memory; format: cell-based, human; conditions: early cART / following cART (8.3–10.1 yr)

**Q.** How did the “memory T cell response (IFN-γ ELISPOT), in words” value (“memory T cell response” for short) turn out when CSCC[C@H](NC(=O)[C@@H]1CCCN1)C(=O)N[C@@H](CS)C(=O)N[C@@H](Cc1ccccc1)C(=O)NCC(=O)N[C@@H](Cc1c[nH]c2ccccc12)C(=O)N[C@@H](CS)C(=O)N[C@@H](Cc1ccccc1)C(=O)N[C@@H](CCCCN)C(=O)N[C@@H](CC(C)C)C(=O)O (H-PMCFGWCFKL-OH; N-terminus and C-terminus assumed) was run?
**A.** recovered during therapy

same assay, conditions: late cART (>12.4 yr)

**Q.** With CSCC[C@H](NC(=O)[C@@H]1CCCN1)C(=O)N[C@@H](CS)C(=O)N[C@@H](Cc1ccccc1)C(=O)NCC(=O)N[C@@H](Cc1c[nH]c2ccccc12)C(=O)N[C@@H](CS)C(=O)N[C@@H](Cc1ccccc1)C(=O)N[C@@H](CCCCN)C(=O)N[C@@H](CC(C)C)C(=O)O (H-PMCFGWCFKL-OH; N-terminus and C-terminus assumed) as the compound, how does the “memory T cell response” value read?
**A.** eventual loss

same assay, conditions: over the course of infection, time points as worded

**Q.** Which “memory T cell response” value does the source give for CSCC[C@H](NC(=O)[C@@H]1CCCN1)C(=O)N[C@@H](CS)C(=O)N[C@@H](Cc1ccccc1)C(=O)NCC(=O)N[C@@H](Cc1c[nH]c2ccccc12)C(=O)N[C@@H](CS)C(=O)N[C@@H](Cc1ccccc1)C(=O)N[C@@H](CCCCN)C(=O)N[C@@H](CC(C)C)C(=O)O (H-PMCFGWCFKL-OH; N-terminus and C-terminus assumed) here?
**A.** no-to-low memory responses

**Q.** With CC(C)C[C@H](NC(=O)[C@H](CCCCN)NC(=O)[C@H](Cc1ccccc1)NC(=O)[C@H](CS)NC(=O)[C@H](Cc1c[nH]c2ccccc12)NC(=O)CNC(=O)[C@H](Cc1ccccc1)NC(=O)[C@H](CS)NC(=O)[C@H](CC(C)C)NC(=O)[C@@H]1CCCN1)C(=O)O (H-PLCFGWCFKL-OH; N-terminus and C-terminus assumed) as the compound, how does the “memory T cell response” value read?
**A.** no-to-low memory responses

target: soluble HLA-A*0201 (Homo sapiens, UniProt P04439, D140Y/D185E/D98H/E176V/E277Q/G131W/G231S/I119V/I121R/I166T/I218V/L300P/L318F/N151K/N90K/P208A/P217A/Q86G/Q94H/R138H/R169H/T345S); test: Fluorescence polarization; format: binding; conditions: not given

**Q.** Which IC50 does the source give for SLFNTIATL here?
**A.** 8.32 µM

**Q.** With PLNAWVKVV as the compound, how does the IC50 read?
**A.** 64.6 µM

**Q.** IGPGRAFYAA was tested. Which IC50 did it give?
**A.** 30.2 µM

**Q.** Which IC50 does the source give for IGSGRAFYAT here?
**A.** 3630 µM

**Q.** SLFNTVATL was tested. Which IC50 did it give?
**A.** 6.46 µM

**Q.** How did the IC50 turn out when TLDAWVKVV was run?
**A.** 20 µM

**Q.** PVTFGWCFKL was tested. Which IC50 did it give?
**A.** 3020 µM

**Q.** With TLSAWVKVV as the compound, how does the IC50 read?
**A.** 15.1 µM

**Q.** IGPGIAFYAT was tested. Which IC50 did it give?
**A.** 813 µM

**Q.** Which IC50 does the source give for SLFNTVATP here?
**A.** 174 µM

**Q.** CC(C)C[C@H](NC(=O)[C@H](CCCCN)NC(=O)[C@H](Cc1ccccc1)NC(=O)[C@H](CS)NC(=O)[C@H](Cc1c[nH]c2ccccc12)NC(=O)CNC(=O)[C@H](Cc1ccccc1)NC(=O)[C@@H](NC(=O)[C@H](CC(C)C)NC(=O)[C@@H]1CCCN1)[C@@H](C)O)C(=O)O was tested. Which IC50 did it give?
**A.** 3020 µM

**Q.** Which IC50 does the source give for CC(C)C[C@H](NC(=O)[C@@H](N)[C@@H](C)O)C(=O)N[C@@H](CC(N)=O)C(=O)N[C@@H](C)C(=O)N[C@@H](Cc1c[nH]c2ccccc12)C(=O)N[C@H](C(=O)N[C@@H](CCCCN)C(=O)N[C@H](C(=O)N[C@H](C(=O)O)C(C)C)C(C)C)C(C)C here?
**A.** 14.5 µM

**Q.** Which IC50 does the source give for SLFNTVAAL [SLFNTVAAL] here?
**A.** 6.92 µM

**Q.** How did the IC50 turn out when ALNAWVKVV was run?
**A.** 8.51 µM

**Q.** With PLTLGWCFKL as the compound, how does the IC50 read?
**A.** 1260 µM

**Q.** With PITFGWCFKL as the compound, how does the IC50 read?
**A.** 2240 µM

**Q.** How did the IC50 turn out when IGPGRAFYAT was run?
**A.** 437 µM

target: soluble HLA A*0201 or B*0702 (allele not stated for the peptide family); test: fluorescence polarisation; conditions: not given

**Q.** For Gag p24 143-151 […] (peptide), which logIC50 is on record?
**A.** 4.34 and 3.92

**Q.** With Env gp160/120 341-349 […] (peptide) as the compound, how does the logIC50 read?
**A.** 4.36

target: soluble HLA-B*0702 (Homo sapiens, UniProt P01889); test: Fluorescence polarization; format: binding; conditions: not given

**Q.** How did the IC50 turn out when CC(C)C[C@H](NC(=O)[C@@H]1CCCN1C(=O)[C@H](Cc1ccccc1)NC(=O)[C@H](CCCNC(=N)N)NC(=O)[C@@H](NC(=O)CNC(=O)[C@@H]1CCCN1C(=O)CNC(=O)[C@@H]1CCCN1C(=O)[C@@H](N)[C@@H](C)O)[C@@H](C)O)C(=O)O was run?
**A.** 2.88 µM

**Q.** How did the IC50 turn out when TSGPGTRFPL was run?
**A.** 70.8 µM

**Q.** With TPGPGTRYPL as the compound, how does the IC50 read?
**A.** 3.72 µM

**Q.** CC[C@H](C)[C@H](NC(=O)CNC(=O)[C@@H]1CCCN1C(=O)CNC(=O)[C@@H]1CCCN1C(=O)[C@@H](N)[C@@H](C)O)C(=O)N[C@@H](CCCNC(=N)N)C(=O)N[C@@H](Cc1ccccc1)C(=O)N1CCC[C@H]1C(=O)N[C@@H](CC(C)C)C(=O)O was tested. Which IC50 did it give?
**A.** 2.51 µM

**Q.** Which IC50 does the source give for RPMTWKAAL [RPMTWKAAL] here?
**A.** 7.24 µM

**Q.** RPMTWKGAL [RPMTWKGAL] was tested. Which IC50 did it give?
**A.** 7.08 µM

**Q.** For FSVRPQVPL, which IC50 is on record?
**A.** 70.8 µM

**Q.** For RPITYKAAL [RPITYKAAL], which IC50 is on record?
**A.** 7.41 µM

**Q.** With TPGPGIRYPL as the compound, how does the IC50 read?
**A.** 6.03 µM

**Q.** With TKGPGIRFPL as the compound, how does the IC50 read?
**A.** 257 µM

**Q.** Which IC50 does the source give for RPNNNTRKST here?
**A.** 11 µM

**Q.** How did the IC50 turn out when RPNNNTRRSI was run?
**A.** 9.77 µM

**Q.** Which IC50 does the source give for RPNNSTRKSI here?
**A.** 7.41 µM

**Q.** For RPTNNTRKSI, which IC50 is on record?
**A.** 5.62 µM

**Q.** Which IC50 does the source give for RPMTRKAAL [RPMTRKAAL] here?
**A.** 6.61 µM

**Q.** For SPRPLNAWV, which IC50 is on record?
**A.** 15.1 µM

**Q.** CSCC[C@H](NC(=O)[C@@H]1CCCN1C(=O)[C@@H](N)CCCNC(=N)N)C(=O)N[C@H](C(=O)N[C@@H](Cc1ccc(O)cc1)C(=O)N[C@@H](CCCCN)C(=O)N[C@@H](C)C(=O)N[C@@H](C)C(=O)N[C@@H](CC(C)C)C(=O)O)[C@@H](C)O [RPMTYKAAL] was tested. Which IC50 did it give?
**A.** 11 µM

**Q.** With SPRTLDAWV as the compound, how does the IC50 read?
**A.** 24 µM

**Q.** Which IC50 does the source give for IPGPGRHPL here?
**A.** 3.24 µM

**Q.** RPMTYKGAL [RPMTYKGAL] was tested. Which IC50 did it give?
**A.** 7.76 µM

**Q.** SPVRPQVPL was tested. Which IC50 did it give?
**A.** 4.68 µM

**Q.** FPIRPQVPL was tested. Which IC50 did it give?
**A.** 4.17 µM

**Q.** For RPNNDTRKSI, which IC50 is on record?
**A.** 7.08 µM

**Q.** For RPNNNTRKSI, which IC50 is on record?
**A.** 3.63 µM

**Q.** Which IC50 does the source give for RPSNNTRKRI here?
**A.** 14.8 µM

**Q.** How did the IC50 turn out when CC[C@H](C)[C@H](NC(=O)CNC(=O)[C@@H]1CCCN1C(=O)CNC(=O)[C@@H]1CCCN1C(=O)[C@@H](N)[C@@H](C)O)C(=O)N[C@@H](CCCNC(=N)N)C(=O)N[C@@H](Cc1ccc(O)cc1)C(=O)N1CCC[C@H]1C(=O)N[C@H](C(=O)O)C(C)C was run?
**A.** 5.5 µM

**Q.** CC[C@H](C)[C@H](NC(=O)[C@H](CCCNC(=N)N)NC(=O)[C@H](CCCCN)NC(=O)[C@H](CCCNC(=N)N)NC(=O)[C@@H](NC(=O)[C@H](CC(N)=O)NC(=O)[C@H](CC(N)=O)NC(=O)[C@H](CC(N)=O)NC(=O)[C@@H]1CCCN1C(=O)[C@@H](N)CCCNC(=N)N)[C@@H](C)O)C(=O)O was tested. Which IC50 did it give?
**A.** 20.9 µM

**Q.** Which IC50 does the source give for RPNNNTRKSL here?
**A.** 4.9 µM

**Q.** PPRTLNAWV was tested. Which IC50 did it give?
**A.** 16.6 µM

**Q.** Which IC50 does the source give for RPNNNTGKRI here?
**A.** 22.9 µM

**Q.** RSNNNTRKSI was tested. Which IC50 did it give?
**A.** 21.4 µM

**Q.** With TPGPGIRFPI as the compound, how does the IC50 read?
**A.** 5.89 µM

**Q.** For CC(C)C[C@H](NC(=O)[C@@H]1CCCN1C(=O)[C@H](Cc1ccc(O)cc1)NC(=O)[C@H](CCCNC(=N)N)NC(=O)[C@@H](NC(=O)CNC(=O)[C@@H]1CCCN1C(=O)CNC(=O)[C@@H]1CCCN1C(=O)[C@@H](N)[C@@H](C)O)C(C)C)C(=O)O, which IC50 is on record?
**A.** 4.37 µM

**Q.** How did the IC50 turn out when CC(C)C[C@H](NC(=O)[C@@H](NC(=O)[C@H](CCCNC(=N)N)NC(=O)[C@@H]1CCCN1C(=O)[C@@H](N)CO)[C@@H](C)O)C(=O)N[C@@H](CC(N)=O)C(=O)N[C@@H](C)C(=O)N[C@@H](Cc1c[nH]c2ccccc12)C(=O)N[C@H](C(=O)O)C(C)C was run?
**A.** 15.1 µM

**Q.** Which IC50 does the source give for RPMTCKGAL [RPMTCKGAL] here?
**A.** 5.5 µM

**Q.** How did the IC50 turn out when CC(C)C[C@H](NC(=O)[C@@H]1CCCN1C(=O)[C@H](Cc1ccccc1)NC(=O)[C@H](CCCNC(=N)N)NC(=O)[C@@H]1CCCN1C(=O)CNC(=O)[C@@H]1CCCN1C(=O)CNC(=O)[C@@H]1CCCN1C(=O)[C@@H](N)[C@@H](C)O)C(=O)O was run?
**A.** 4.57 µM

**Q.** Which IC50 does the source give for TPGPGPRYPL here?
**A.** 5.89 µM

**Q.** Which IC50 does the source give for RPNNNTRKCI here?
**A.** 42.7 µM

**Q.** How did the IC50 turn out when TPGPGPRYPM was run?
**A.** 3.72 µM

**Q.** How did the IC50 turn out when SPRTLSAWV was run?
**A.** 1200 µM

**Q.** For SPRALNAWV, which IC50 is on record?
**A.** 11.7 µM

**Q.** FPARPQVPL was tested. Which IC50 did it give?
**A.** 4.57 µM

**Q.** For TPGPGPRYPV, which IC50 is on record?
**A.** 6.61 µM

**Q.** How did the IC50 turn out when TPGPGIRYPM was run?
**A.** 3.16 µM

**Q.** How did the IC50 turn out when CC(C)C[C@H](NC(=O)[C@@H]1CCCN1C(=O)[C@@H](NC(=O)[C@H](CCC(N)=O)NC(=O)[C@@H]1CCCN1C(=O)[C@H](CCCNC(=N)N)NC(=O)[C@@H](NC(=O)[C@@H]1CCCN1C(=O)[C@@H](N)Cc1ccccc1)C(C)C)C(C)C)C(=O)O was run?
**A.** 6.76 µM
